# BindingDB's records for doi:10.1021/cb500009r (Shanghai Center For Systems Biomedicine, 2014)
# Key:
# [1] = target: T1, Dopa decarboxylase (Aromatic L-amino acid decarboxylase), isoform CRA_a (Homo sapiens, UniProt Q53Y41); test: DDC-MDH-PEPC-Linked assay; conditions: pH 8.05; 37 °C
# T1 sequence (Q53Y41 whole entry): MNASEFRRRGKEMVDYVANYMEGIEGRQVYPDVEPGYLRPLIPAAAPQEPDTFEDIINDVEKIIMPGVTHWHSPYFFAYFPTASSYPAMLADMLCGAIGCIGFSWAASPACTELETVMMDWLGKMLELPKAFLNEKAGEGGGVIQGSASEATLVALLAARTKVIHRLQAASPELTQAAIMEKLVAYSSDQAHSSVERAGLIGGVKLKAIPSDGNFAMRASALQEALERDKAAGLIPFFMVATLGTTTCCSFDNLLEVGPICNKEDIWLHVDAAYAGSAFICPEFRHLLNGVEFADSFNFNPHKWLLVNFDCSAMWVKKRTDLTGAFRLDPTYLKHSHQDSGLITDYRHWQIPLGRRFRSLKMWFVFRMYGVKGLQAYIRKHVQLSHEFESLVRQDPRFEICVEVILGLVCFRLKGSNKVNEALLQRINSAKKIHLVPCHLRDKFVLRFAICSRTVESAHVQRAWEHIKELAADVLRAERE
# Protocol: To the wells of a 384-well polypropylene plate, 1 µL DMSO (control) or test compounds at indicated concentrations were added, followed by the addition of 24.5 µL enzyme mix [50 mM Tris-HCl, 50 mM NaCl, 0.015% (w/v) BSA, 5 mM MgCl2, 2 mM β-mercaptoethanol, 760 µM NADH, 330 nM PEPC, 100 µM PLP and 284 nM hDDC, pH 8.05], and 24.5 µL substrate mix [50 mM Tris-HCl containing 50 mM NaCl, 0.015% (w/v) BSA, 5 mM MgCl2, 2 mM β-mercaptoethanol, 10 mM PPPA, 0.49 U MDH and 1.5 mM L-DOPA, pH 8.05]. The plate was sealed and incubated for 1 h in 37 °C. The OD was taken at 340 nm.
# [2] = target: Cystathionine gamma-lyase (Homo sapiens, UniProt P32929); test: Human CSE enzyme assay; conditions: pH 7; 37 °C
# Protocol: 500 nM hCSE in optimal buffer (50 mM Hepes, pH 7.0; final concentration) was incubated with compound for 45 min in the 192-tandem-well plate before adding substrate (5 mM L-cysteine; final concentration). The reaction was then incubated at 37 °C for 60 min before the absorbance at 413 nm of DTNB was measured.
# Chain of Cystathionine gamma-lyase (P32929 whole entry): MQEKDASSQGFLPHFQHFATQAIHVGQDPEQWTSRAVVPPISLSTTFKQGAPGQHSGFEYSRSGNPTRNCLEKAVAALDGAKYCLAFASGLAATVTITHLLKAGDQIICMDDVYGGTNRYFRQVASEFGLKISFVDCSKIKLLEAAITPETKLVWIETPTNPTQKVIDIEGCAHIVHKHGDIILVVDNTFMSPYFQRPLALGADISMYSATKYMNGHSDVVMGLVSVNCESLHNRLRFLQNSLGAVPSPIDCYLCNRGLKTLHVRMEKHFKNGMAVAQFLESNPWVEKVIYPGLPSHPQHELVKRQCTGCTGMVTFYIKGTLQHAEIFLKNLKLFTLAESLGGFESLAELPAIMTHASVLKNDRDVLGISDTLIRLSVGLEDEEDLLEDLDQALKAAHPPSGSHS
IC50 [1] [µM],IC50 [2] [µM],SMILES
> 200,> 200,COc1ccc(CCCc2ccc(O)c(OC)c2)c(O)c1 [1-(2-hydroxy-4-meth-oxyphenyl)-3-(4-hydroxy-3-methoxyphenyl)propane (12)]
> 200,> 200,"COc1cc(OC)c2c(c1)O[C@@H](c1ccc(O)c(O)c1)CC2 [(2R)-3′,4′-Dihydroxy-5,7-methoxyflavan (14)]"
> 200,> 200,"COc1ccc2c(c1)O[C@@H](c1ccc(O)c(O)c1)CC2 [(2R)-3′,4′-Dihydroxy-7-methoxyflavan (13)]"
100,> 200,COc1cc(CC=C(c2cc(O)c(OC)cc2O)c2c(OC)cc3c(c2O)CCC(c2ccc(O)c(O)c2)O3)ccc1O (stereo not drawn) [(+)-Euonyquinone C (9)]
> 200,> 200,COc1cc(CCCc2ccc(OC)c(O)c2OC)ccc1O [Broussonin F (11)]
21.6,> 200,COc1cc(CC=C(c2cc(O)c(OC)cc2O)c2cc(CCCc3ccc(O)c(OC)c3)c(O)cc2OC)ccc1O [Combrequinone B (6)]
100,> 200,COc1cc(CCCc2cc(C(CCc3ccc(O)c(OC)c3)c3cc(OC)c(OC)cc3O)c(OC)cc2O)ccc1O (stereo not drawn) [Euonydiarylpropane A (1)]
100,> 200,COc1cc(CCCc2cc(C(CCc3ccc(O)c(OC)c3)c3cc(OC)c(OC)cc3O)c(O)cc2OC)ccc1O (stereo not drawn) [Euonydiarylpropane B (2)]
> 200,> 200,COc1ccc(C(CCc2ccc(O)c(OC)c2)c2cc(CCCc3ccc(O)c(OC)c3)c(O)cc2OC)c(O)c1 (stereo not drawn) [Euonydiarylpropane C (3)]
> 200,> 200,COc1cc(CCCc2cc(C(CCc3ccc(O)c(OC)c3)c3cc(O)c(OC)cc3OC)c(O)cc2OC)ccc1O (stereo not drawn) [Euonydiarylpropane D (4)]
11.5,> 200,COC1=CC(=O)C(CC(=O)Cc2ccc(O)c(OC)c2)=C(c2cc(CCCc3ccc(O)c(OC)c3)c(OC)cc2O)C1=O [Euonyquinone A (5)]
50,> 200,COc1cc(CC=C(c2cc(O)c(OC)cc2O)c2c(OC)cc3c(c2O)CCC(c2ccc(O)c(OC)c2)O3)ccc1O (stereo not drawn) [Euonyquinone B (7)]
> 200,> 200,COc1cc(CCCc2ccc(O)cc2OC)ccc1O [Griffithane B (10)]
1200,3000,C[C@](N)(Cc1ccc(O)c(O)c1)C(=O)O [SMR000059170]
